Experimental data as given in patent US20140274688A1, “MOLECULES HAVING CERTAIN PESTICIDAL UTILITIES, AND INTERMEDIATES, COMPOSITIONS, AND PROCESSES RELATED THERETO” (DOW AGROSCIENCES LLC, priority 2013, published 2014).

Legend:
[1] = tested on: Beet Armyworm (Spodoptera exigua) ("BAW"); experiment: Bioassay on Beet Armyworm (BAW), 128-well diet tray assay, percent mortality; type: in vivo; details: Spodoptera exigua, read-out: BAW
From the text: (§1) Bioassays on Beet Armyworm (Spodoptera exigua) (“BAW”) and Cabbage Looper (Trichoplusia ni) (“CL”)
(§2) BAW has few effective parasites, diseases, or predators to lower its population. BAW infests many weeds, trees, grasses, legumes, and field crops. In various places, it is of economic concern upon asparagus, cotton, corn, soybeans, tobacco, alfalfa, sugar beets, peppers, tomatoes, potatoes, onions, peas, sunflowers, and citrus, among other plants. The Cabbage Looper is a member of the moth family Noctuidae. It is found throughout the world. It is attacks cabbage, cauliflower, broccoli, Brussel sprouts, tomatoes, cucumbers, potatoes, kale, turnips, mustard, peppers, eggplant, watermelons, melons, squash, cantaloupe, peas, beans, collards, lettuce, spinach, celery, parsley, beets, peas, alfalfa, soybeans, and cotton. This species is very destructive to plants due to its voracious consumption of leaves. In the case of cabbage, however, they feed not only on the wrapper leaves, but also may bore into the developing head. The larvae consume three times their weight in plant material daily. The feeding sites are marked by large accumulations of sticky, wet fecal material.
(§3) Consequently, because of the above factors control of these pests is important.
(§4) Certain molecules disclosed in this document were tested against BAW and CEW using procedures described in the following examples. In the reporting of the results, the “BAW & CL Rating Table” was used (See Table Section).
(§5) Trays were covered with a clear self-adhesive cover and held at 25° C., 14:10 light-dark for five to seven days. Percent mortality was recorded for the larvae in each well; activity in the eight wells was then averaged. The results are indicated in the table entitled “Table ABC: Biological Results” (See Table Section).

[2] = tested on: Cabbage Looper (Trichoplusia ni) ("CL"); experiment: Bioassay on Cabbage Looper (CL), 128-well diet tray assay, percent mortality; type: in vivo; details: Trichoplusia ni, read-out: CL
From the text: as §1, §2, §3, §4
Bioassays on Cabbage Looper in CL
as §5

Row | SMILES | pest or weed control at 50 µg/cm2 [1] [%] | pest or weed control at 50 µg/cm2 [2] [%]
1 | CC(C)c1ccccc1N1C(=O)CS/C1=N\C(=O)NCCc1cccc(-c2ncn(-c3ccc(OC(F)(F)F)cc3)n2)c1 [P76, (Z)-1-(3-(2-isopropylphenyl)-4-oxothiazolidin-2-ylidene)-3-(3-(1-(4-(trifluoromethoxy)phenyl)-1H-1,2,4-triazol-3-yl)phenethyl)urea] | 50 to 100 | 50 to 100
2 | CCCc1ccc(C)cc1N1C(=O)CS/C1=N\C(=O)NCCc1cccc(-c2ncn(-c3ccc(OC(F)(F)F)cc3)n2)c1 [P80, (Z)-1-(3-(5-methyl-2-propylphenyl)-4-oxothiazolidin-2-ylidene)-3-(3-(1-(4-(trifluoromethoxy)phenyl)-1H-1,2,4-triazol-3-yl)phenethyl)urea] | 50 to 100 | 50 to 100
3 | CCc1cccc(C)c1N1C(=O)CS/C1=N\C(=O)NCCc1cccc(-c2ncn(-c3ccc(OC(F)(F)F)cc3)n2)c1 [P83, (Z)-1-(3-(2-ethyl-6-methylphenyl)-4-oxothiazolidin-2-ylidene)-3-(3-(1-(4-(trifluoromethoxy)phenyl)-1H-1,2,4-triazol-3-yl)phenethyl)urea] | 50 to 100 | 50 to 100
4 | Cc1ccc(N2C(=O)CS/C2=N\C(=O)NCCc2cccc(-c3ncn(-c4ccc(OC(F)(F)F)cc4)n3)c2)c(C(C)C)c1 [P84, (Z)-1-(3-(2-isopropyl-4-methylphenyl)-4-oxothiazolidin-2-ylidene)-3-(3-(1-(4-(trifluoromethoxy)phenyl)-1H-1,2,4-triazol-3-yl)phenethyl)urea] | 50 to 100 | 50 to 100
5 | CC(C)c1cc(F)ccc1N1C(=O)CS/C1=N\C(=O)NCCc1cccc(-c2ncn(-c3ccc(OC(F)(F)F)cc3)n2)c1 [P85, (Z)-1-(3-(4-fluoro-2-isopropylphenyl)-4-oxothiazolidin-2-ylidene)-3-(3-(1-(4-(trifluoromethoxy)phenyl)-1H-1,2,4-triazol-3-yl)phenethyl)urea] | 50 to 100 | 50 to 100
6 | COc1ccc(N2C(=O)CS/C2=N\C(=O)NCCc2cccc(-c3ncn(-c4ccc(OC(F)(F)F)cc4)n3)c2)c(C)c1 [P87, (Z)-1-(3-(4-methoxy-2-methylphenyl)-4-oxothiazolidin-2-ylidene)-3-(3-(1-(4-(trifluoromethoxy)phenyl)-1H-1,2,4-triazol-3-yl)phenethyl)urea] | 50 to 100 | 50 to 100
7 | Cc1ccccc1N1C(=O)CS/C1=N\C(=O)NCCCc1ccc(-c2ncn(-c3ccc(OC(F)(F)F)cc3)n2)cc1 [P92, (Z)-1-(4-oxo-3-(o-tolyl)thiazolidin-2-ylidene)-3-(3-(4-(1-(4-(trifluoromethoxy)phenyl)-1H-1,2,4-triazol-3-yl)phenyl)propyl)urea] | 50 to 100 | 50 to 100
8 | CCc1ccccc1N1C(=O)CS/C1=N\C(=O)NCCCc1ccc(-c2ncn(-c3ccc(OC(F)(F)F)cc3)n2)cc1 [P93, (Z)-1-(3-(2-ethylphenyl)-4-oxothiazolidin-2-ylidene)-3-(3-(4-(1-(4-(trifluoromethoxy)phenyl)-1H-1,2,4-triazol-3-yl)phenyl)propyl)urea] | 50 to 100 | 50 to 100
9 | CC(C)c1ccccc1N1C(=O)CS/C1=N\C(=O)NCCCc1ccc(-c2ncn(-c3ccc(OC(F)(F)F)cc3)n2)cc1 [P94, (Z)-1-(3-(2-isopropylphenyl)-4-oxothiazolidin-2-ylidene)-3-(3-(4-(1-(4-(trifluoromethoxy)phenyl)-1H-1,2,4-triazol-3-yl)phenyl)propyl)urea] | 50 to 100 | 50 to 100
10 | CCCc1ccc(C)cc1N1C(=O)CS/C1=N\C(=O)NCCCc1ccc(-c2ncn(-c3ccc(OC(F)(F)F)cc3)n2)cc1 [P99, (Z)-1-(3-(5-methyl-2-propylphenyl)-4-oxothiazolidin-2-ylidene)-3-(3-(4-(1-(4-(trifluoromethoxy)phenyl)-1H-1,2,4-triazol-3-yl)phenyl)propyl)urea] | 50 to 100 | 50 to 100
11 | CCc1cccc(C)c1N1C(=O)CS/C1=N\C(=O)NCCCc1ccc(-c2ncn(-c3ccc(OC(F)(F)F)cc3)n2)cc1 [P101, (Z)-1-(3-(2-ethyl-6-methylphenyl)-4-oxothiazolidin-2-ylidene)-3-(3-(4-(1-(4-(trifluoromethoxy)phenyl)-1H-1,2,4-triazol-3-yl)phenyl)propyl)urea] | 0 to 50 | 50 to 100
12 | Cc1ccc(N2C(=O)CS/C2=N\C(=O)NCCCc2ccc(-c3ncn(-c4ccc(OC(F)(F)F)cc4)n3)cc2)c(C(C)C)c1 [P102, (Z)-1-(3-(2-isopropyl-4-methylphenyl)-4-oxothiazolidin-2-ylidene)-3-(3-(4-(1-(4-(trifluoromethoxy)phenyl)-1H-1,2,4-triazol-3-yl)phenyl)propyl)urea] | 50 to 100 | 50 to 100
13 | CC(C)c1cc(F)ccc1N1C(=O)CS/C1=N\C(=O)NCCCc1ccc(-c2ncn(-c3ccc(OC(F)(F)F)cc3)n2)cc1 [P103, (Z)-1-(3-(4-fluoro-2-isopropylphenyl)-4-oxothiazolidin-2-ylidene)-3-(3-(4-(1-(4-(trifluoromethoxy)phenyl)-1H-1,2,4-triazol-3-yl)phenyl)propyl)urea] | 50 to 100 | 50 to 100
14 | COc1ccc(N2C(=O)CS/C2=N\C(=O)NCCCc2ccc(-c3ncn(-c4ccc(OC(F)(F)F)cc4)n3)cc2)c(C)c1 [P105, (Z)-1-(3-(4-methoxy-2-methylphenyl)-4-oxothiazolidin-2-ylidene)-3-(3-(4-(1-(4-(trifluoromethoxy)phenyl)-1H-1,2,4-triazol-3-yl)phenyl)propyl)urea] | 50 to 100 | 50 to 100
15 | Cc1ccccc1N1C(=O)CS/C1=N\C(=O)NCCCc1cccc(-c2ncn(-c3ccc(OC(F)(F)F)cc3)n2)c1 [P118, (Z)-1-(4-oxo-3-(o-tolyl)thiazolidin-2-ylidene)-3-(3-(3-(1-(4-(trifluoromethoxy)phenyl)-1H-1,2,4-triazol-3-yl)phenyl)propyl)urea] | 50 to 100 | 50 to 100
16 | CCc1ccccc1N1C(=O)CS/C1=N\C(=O)NCCCc1cccc(-c2ncn(-c3ccc(OC(F)(F)F)cc3)n2)c1 [P119, (Z)-1-(3-(2-ethylphenyl)-4-oxothiazolidin-2-ylidene)-3-(3-(3-(1-(4-(trifluoromethoxy)phenyl)-1H-1,2,4-triazol-3-yl)phenyl)propyl)urea] | 50 to 100 | 50 to 100
17 | CC(C)c1ccccc1N1C(=O)CS/C1=N\C(=O)NCCCc1cccc(-c2ncn(-c3ccc(OC(F)(F)F)cc3)n2)c1 [P120, (Z)-1-(3-(2-isopropylphenyl)-4-oxothiazolidin-2-ylidene)-3-(3-(3-(1-(4-(trifluoromethoxy)phenyl)-1H-1,2,4-triazol-3-yl)phenyl)propyl)urea] | 50 to 100 | 50 to 100
18 | Cc1ccc(C(C)C)c(N2C(=O)CS/C2=N\C(=O)NCCCc2cccc(-c3ncn(-c4ccc(OC(F)(F)F)cc4)n3)c2)c1 [P124, (Z)-1-(3-(2-isopropyl-5-methylphenyl)-4-oxothiazolidin-2-ylidene)-3-(3-(3-(1-(4-(trifluoromethoxy)phenyl)-1H-1,2,4-triazol-3-yl)phenyl)propyl)urea] | 50 to 100 | 50 to 100
19 | CCCc1ccc(C)cc1N1C(=O)CS/C1=N\C(=O)NCCCc1cccc(-c2ncn(-c3ccc(OC(F)(F)F)cc3)n2)c1 [P125, (Z)-1-(3-(5-methyl-2-propylphenyl)-4-oxothiazolidin-2-ylidene)-3-(3-(3-(1-(4-(trifluoromethoxy)phenyl)-1H-1,2,4-triazol-3-yl)phenyl)propyl)urea] | 50 to 100 | 50 to 100
20 | CCc1cccc(C)c1N1C(=O)CS/C1=N\C(=O)NCCCc1cccc(-c2ncn(-c3ccc(OC(F)(F)F)cc3)n2)c1 [P127, (Z)-1-(3-(2-ethyl-6-methylphenyl)-4-oxothiazolidin-2-ylidene)-3-(3-(3-(1-(4-(trifluoromethoxy)phenyl)-1H-1,2,4-triazol-3-yl)phenyl)propyl)urea] | 50 to 100 | 50 to 100
21 | Cc1ccc(N2C(=O)CS/C2=N\C(=O)NCCCc2cccc(-c3ncn(-c4ccc(OC(F)(F)F)cc4)n3)c2)c(C(C)C)c1 [P128, (Z)-1-(3-(2-isopropyl-4-methylphenyl)-4-oxothiazolidin-2-ylidene)-3-(3-(3-(1-(4-(trifluoromethoxy)phenyl)-1H-1,2,4-triazol-3-yl)phenyl)propyl)urea] | 50 to 100 | 50 to 100
22 | CC(C)c1cc(F)ccc1N1C(=O)CS/C1=N\C(=O)NCCCc1cccc(-c2ncn(-c3ccc(OC(F)(F)F)cc3)n2)c1 [P129, (Z)-1-(3-(4-fluoro-2-isopropylphenyl)-4-oxothiazolidin-2-ylidene)-3-(3-(3-(1-(4-(trifluoromethoxy)phenyl)-1H-1,2,4-triazol-3-yl)phenyl)propyl)urea] | 50 to 100 | 50 to 100
